Results from PMC8047731 (ACS Omega, 2021).

Key:
[1] = test system: short duplex DNA substrate (EtBr-DS); test: Ethidium bromide displacement assay; format: binding; conditions: compound at exonuclease IC50 of SNM1A, 10 min
[2] = test system: nuclease; conditions: cited from earlier work
[3] = target: T1, SNM1A exonuclease activity (Homo sapiens, UniProt Q6PJP8); test: Gel-based IC50 determination, SNM1A exonuclease activity; conditions: 0.2 nM SNM1A, 110 nM 5P-1F, 60 min, 37 °C, triplicate
T1 sequence (Q6PJP8 698-1040): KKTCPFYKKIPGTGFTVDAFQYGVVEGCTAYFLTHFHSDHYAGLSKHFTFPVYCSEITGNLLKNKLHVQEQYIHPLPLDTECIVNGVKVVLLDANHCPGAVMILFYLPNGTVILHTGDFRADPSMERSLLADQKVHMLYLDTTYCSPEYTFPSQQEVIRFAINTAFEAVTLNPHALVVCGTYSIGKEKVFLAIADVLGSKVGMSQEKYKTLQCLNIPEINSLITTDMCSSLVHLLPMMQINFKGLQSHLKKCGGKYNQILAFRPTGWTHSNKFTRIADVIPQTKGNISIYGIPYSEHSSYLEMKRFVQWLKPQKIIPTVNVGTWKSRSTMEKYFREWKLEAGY

[4] = target: T2, SNM1A (Homo sapiens, UniProt Q6PJP8); test: Gel-based secondary screen validation; format: biochemical; conditions: 25 and 6.25 μM compound
T2 sequence (Q6PJP8 698-1040): T1 sequence (Q6PJP8 698-1040)

[5] = test system: HeLa cells; test: Cisplatin potentiation assay; format: cell-based; conditions: 25 μM compound + […] μM cisplatin (LD10), 72 h, alamarBlue

O=C(O)C1=CC(=C(c2ccc(O)c(C(=O)O)c2)c2ccc(O)c(C(=O)O)c2)C=CC1=O [Compound 20, AURINTRICARBOXYLIC ACID]
Displacement of ethidium bromide from DNA [1]: apparent nonspecific interactions with DNA
Nuclease inhibition [2]: nonspecific nuclease inhibitor
Exonuclease IC50 [3]: nanomolar range

C[C@@H]1CC[C@@]23CCC4(C)[C@@](C=CC5[C@@]6(C)CCC(=O)C(C)(C)C6CC[C@]54C)(OC2=O)C3[C@H]1C (some centres unmarked) [Compound 44, 3-OXOURSAN (28-13)OLIDE]
Assay interference in the gel-based screen (reason for exclusion) [4]: internal fluorescence

O=c1cc(-c2ccc(O)c(-c3c(O)cc(O)c4c(=O)cc(-c5ccc(O)cc5)oc34)c2)oc2cc(O)cc(O)c12 [Compound 13, AMENTOFLAVONE]
Cell survival with sublethal cisplatin (potentiation) [5]: reduced cell survival
Displacement of ethidium bromide from DNA [1]: do not appear to significantly displace ethidium bromide

COC(=O)c1cc(O)c(=O)c2c(O)c(O)ccc2c1 [Compound 61, METHYL 7-DESHYDROXYPYROGALLIN-4-CARBOXYLATE]
Displacement of ethidium bromide from DNA [1]: do not appear to significantly displace ethidium bromide

O=C1OC2(c3ccc(O)cc3Oc3cc(O)ccc32)c2ccccc21 [Compound 54, FLUORESCEIN]
Assay interference in the gel-based screen (reason for exclusion) [4]: internal fluorescence

Nc1c(S(=O)(=O)O)cc(Nc2ccc(Nc3nc(Cl)nc(Nc4cccc(S(=O)(=O)O)c4)n3)c(S(=O)(=O)O)c2)c2c1C(=O)c1ccccc1C2=O [Compound 30, REACTIVE BLUE 2]
Cell survival with sublethal cisplatin (potentiation) [5]: reduced cell survival
Displacement of ethidium bromide from DNA [1]: apparent nonspecific interactions with DNA

O=C(O[C@@H]1Cc2c(O)cc(O)cc2O[C@@H]1c1cc(O)c(=O)c2c(O)c(O)cc([C@H]3Oc4cc(O)cc(O)c4C[C@H]3OC(=O)c3cc(O)c(O)c(O)c3)c2c1)c1cc(O)c(O)c(O)c1 [Compound 40, […]]
Displacement of ethidium bromide from DNA [1]: apparent nonspecific interactions with DNA
